This experiment is described as follows: Binding affinity was determined against Opioid receptor delta 1 from guinea pig brain membranes.

pKi: −log10 of the molar value.

For orientation: pKi means −log10 of the Ki, conventionally taken in molar units. Read a low pKi as a high Ki. Turning to `COCC[C@H]1CC2CN3CCc4c([nH]c5ccccc45)[C@](C(=O)OC)(C2)C13` [18-methoxycoronaridine], the negative-log Ki (pKi) was 5.46.

For the origin of these results see BindingDB's records for doi:10.1021/jm020562o (University of Vermont, 2003).
